# Assay results taken from patent US7425549B2, “Drug for the treatment of osteonecrosis and for the management of patients at risk of developing osteonecrosis” (The Royal Alexandra Hospital for Children, priority 2001, dated 2008).
# System: traumatic osteonecrosis (femoral head)
# Experiment: Model of traumatic osteonecrosis of the femoral head in rats, six weeks after operation
# Type: in vivo, Wistar rats
# Conditions: for BMC / BMD: femoral head, DEXA; for XR Head Area (% Contra): operated femoral head, six weeks
# Source text: A model of traumatic osteonecrosis was utilised in 24 female 14-week-old Wistar rats. The animals were followed for six weeks after an operation designed to disrupt the blood supply to the femoral head. The six week time point was chosen as a time point when femoral head collapse is known to have occurred in this model ^1. Animal ethics approval was received.
# Rats were randomised in lots of 4 into three groups according to the schedule below. Controls receive only saline (S) injections via a subcutaneous route. Post-treated animals received saline only pre-operatively, but zoledronic acid (ZA) (Novartis) 0.1 mg/kg, from commercial stock, was administered by subcutaneous injection post-operatively at 1 and 4 weeks. Pre and Post-treated animals received zoledronic acid 0.1 mg/kg at all three time points.
# The same operation was performed on each rat at time zero. All animals were weighed accurately before anaesthesia. Animals were kept warm during surgery and recovery. Anaesthesia was induced with a mixture of Ketamine 75 mg/kg and Xylazine 10 mg/kg. Drugs were mixed in the same syringe just prior to administration and given 0.2 mL per 100 g BW IM. Induction occurred within 5-10 minutes.
# After sterile preparation and shaving of the right lower extremity, an open approach was made to the hip joint. The capsule was opened, and the right femoral head was dislocated from the acetabulum. The ligamentum teres divided, disrupting any blood supply from that source. The entire femoral neck was denuded of soft tissue by polishing with a vicryl suture. This disrupted the lateral epiphyseal artery and any other vessels supplying the head via the femoral neck.
# Dual fluorescent labels were applied at weeks 4 and 5: at week 4 demeclocycline 30 mg/kg was administered intraperitoneally, and at week 5 calcein 20 mg/kg was administered intraperitoneally. One hour prior to culling 70 MBq Tc99 MDP was administered subcutaneously to allow bone scintigraphy to be performed on harvested specimens.
# After culling, right and left proximal femora were harvested and fixed in 4% paraformaldehyde. Radiographs were taken in pairs on high quality film with a Faxitron Shielded Cabinet X-Ray System (Hewlett Packard, McMinnville, Oreg. X-ray images were digitised and analysed using Bioquant image analysis system (R&M Biometrics Inc., Nashville, Tenn.) connected to a digitizing tablet (GTCO CalComp, Inc., Columbia, Md.). Bone area, height and width of the femoral head were recorded and compared to the contralateral side. Scintigraphy scans were taken using 4 mm aperture pinholes. BMD and BMC were measured with a pDEXA Sabre scanner (Norland, Ft Atkinson Wis.).
# Specimens were resin embedded and sectioned undecalcified. Coronal sections (6 microns) were cut through the femoral head. Sections were stained with von Kossa to assess trabecular bone volume and structure. Fluorescent microscopy was used on unstained sections to image the fluorescent labels and assess bone formation.
# [1] = Post-Treated: 0.1 mg/kg s.c. at 1 and 4 weeks post-operatively
# [2] = Pre- and Post: 0.1 mg/kg s.c. at all three time points
smiles,measurement,setting,value
"O=P(O)(O)C(O)(Cn1ccnc1)P(=O)(O)O [zoledronic acid, 1-hydroxy-2-[(1H-imidazol-1-yl)ethylidine] bisphosphonic acid]",BMC,[1],0.012 g
same,BMD,[1],0.11 g/cm^2
same,XR Head Area (% Contra),[1],79 % Contra
same,BMC,[2],0.015 g
same,BMD,[2],0.12 g/cm^2
same,XR Head Area (% Contra),[2],85 % Contra
